Test results taken from US6762174B1 (priority 1998, dated 2004).

Columns and labels:
[1] = test system: MT-1 breast cancer xenograft; assay: MT-1 breast cancer xenograft, second experiment: BT on day 3 only; assay type: in vivo, male nude mice
Description: In the second experiment with MT-1 breast cancer, BT was administered on day three only, at doses of […] to 3 micrograms/kg. The T/C ratio of treated vs. control median RTV was measured on day 28. […] The other doses of BT (30 ng, 3 ng, 0.3 ng, and 0.03 ng) alone were not effective in this experiment. These observations of RTV were made only through day 28.

MOPC-315 myeloma = assay: MOPC-315 Myeloma study #1: β-alethine ip day 2 (1 × 10^6 tumor cells)

NCCC(=O)NCCSSCCNC(=O)CCN [BT, β-alethine]
effectiveness ([1]; BT 30 ng, 3 ng, 0.3 ng, 0.03 ng alone): not effective | T/C ratio of median RTV ([1]; BT 300 ng/kg day 3, day 28): 42% | Median RTV ([1]; BT 300 ng/kg on Day 3, day 8): 1.105 | Median RTV ([1]; BT 300 ng/kg on Day 3, day 14): 1.243 | Median RTV ([1]; BT 300 ng/kg on Day 3, day 21): 2.532 | Median RTV ([1]; BT 300 ng/kg on Day 3, day 28): 3.317 | T/C ratio of median RTV ([1]; BT 3 ug/kg day 3, day 28): 32% | Median RTV ([1]; BT 3 ug/kg on Day 3, day 8): 1.012 | Median RTV ([1]; BT 3 ug/kg on Day 3, day 14): 0.955 | Median RTV ([1]; BT 3 ug/kg on Day 3, day 21): 1.756 | Median RTV ([1]; BT 3 ug/kg on Day 3, day 28): 2.526 | Animals Surviving (MOPC-315 myeloma; BT 3 ng/kg, day 10): 10 | Animals Surviving (MOPC-315 myeloma; BT 3 ng/kg, day 11): 10 | Animals Surviving (MOPC-315 myeloma; BT 3 ng/kg, day 12): 10 | Animals Surviving (MOPC-315 myeloma; BT 3 ng/kg, day 13): 9 | Animals Surviving (MOPC-315 myeloma; BT 3 ng/kg, day 14): 8 | Animals Surviving (MOPC-315 myeloma; BT 3 ng/kg, day 15): 7 | Animals Surviving (MOPC-315 myeloma; BT 3 ng/kg, day 16): 6 | Animals Surviving (MOPC-315 myeloma; BT 3 ng/kg, day 17): 4 | Animals Surviving (MOPC-315 myeloma; BT 3 ng/kg, day 18): 3 | Animals Surviving (MOPC-315 myeloma; BT 3 ng/kg, day 19): 3 | Animals Surviving (MOPC-315 myeloma; BT 3 ng/kg, day 20): 2 | Animals Surviving (MOPC-315 myeloma; BT 3 ng/kg, day 21): 0 | Animals Surviving (MOPC-315 myeloma; BT 100 μg/kg, day 10): 10 | Animals Surviving (MOPC-315 myeloma; BT 100 μg/kg, day 11): 10 | Animals Surviving (MOPC-315 myeloma; BT 100 μg/kg, day 12): 10 | Animals Surviving (MOPC-315 myeloma; BT 100 μg/kg, day 13): 10 | Animals Surviving (MOPC-315 myeloma; BT 100 μg/kg, day 14): 7 | Animals Surviving (MOPC-315 myeloma; BT 100 μg/kg, day 15): 6 | Animals Surviving (MOPC-315 myeloma; BT 100 μg/kg, day 16): 6 | Animals Surviving (MOPC-315 myeloma; BT 100 μg/kg, day 17): 5 | Animals Surviving (MOPC-315 myeloma; BT 100 μg/kg, day 18): 3 | Animals Surviving (MOPC-315 myeloma; BT 100 μg/kg, day 19): 3 | Animals Surviving (MOPC-315 myeloma; BT 100 μg/kg, day 20): 1 | Animals Surviving (MOPC-315 myeloma; BT 100 μg/kg, day 21): 0 | Animals Surviving (MOPC-315 myeloma; BT 3 mg/kg, day 10): 10 | Animals Surviving (MOPC-315 myeloma; BT 3 mg/kg, day 11): 10 | Animals Surviving (MOPC-315 myeloma; BT 3 mg/kg, day 12): 10 | Animals Surviving (MOPC-315 myeloma; BT 3 mg/kg, day 13): 10 | Animals Surviving (MOPC-315 myeloma; BT 3 mg/kg, day 14): 7 | Animals Surviving (MOPC-315 myeloma; BT 3 mg/kg, day 15): 4 | Animals Surviving (MOPC-315 myeloma; BT 3 mg/kg, day 16): 4 | Animals Surviving (MOPC-315 myeloma; BT 3 mg/kg, day 17): 3 | Animals Surviving (MOPC-315 myeloma; BT 3 mg/kg, day 18): 2 | Animals Surviving (MOPC-315 myeloma; BT 3 mg/kg, day 19): 2 | Animals Surviving (MOPC-315 myeloma; BT 3 mg/kg, day 20): 1 | Animals Surviving (MOPC-315 myeloma; BT 3 mg/kg, day 21): 1 | Animals Surviving (MOPC-315 myeloma; BT 3 mg/kg, day 22): 1 | Animals Surviving (MOPC-315 myeloma; BT 3 mg/kg, day 23): 1 | Animals Surviving (MOPC-315 myeloma; BT 3 mg/kg, day 24): 0 | Animals Surviving (MOPC-315 myeloma; BT 30 fg/kg, day 10): 10 | Animals Surviving (MOPC-315 myeloma; BT 30 fg/kg, day 11): 10 | Animals Surviving (MOPC-315 myeloma; BT 30 fg/kg, day 12): 10 | Animals Surviving (MOPC-315 myeloma; BT 30 fg/kg, day 13): 8 | Animals Surviving (MOPC-315 myeloma; BT 30 fg/kg, day 14): 5 | Animals Surviving (MOPC-315 myeloma; BT 30 fg/kg, day 15): 3 | Animals Surviving (MOPC-315 myeloma; BT 30 fg/kg, day 16): 3 | Animals Surviving (MOPC-315 myeloma; BT 30 fg/kg, day 17): 3 | Animals Surviving (MOPC-315 myeloma; BT 30 fg/kg, day 18): 2 | Animals Surviving (MOPC-315 myeloma; BT 30 fg/kg, day 19): 2 | Animals Surviving (MOPC-315 myeloma; BT 30 fg/kg, day 20): 0 | Animals Surviving (MOPC-315 myeloma; BT 30 fg/kg, day 21): 0
